Reference: patent US9193721B2, “Fused derivatives as PI3Kδ inhibitors” (Incyte Holdings Corporation, priority 2010, dated 2015)

How the values were obtained:
[1] = tested on: Pfeiffer cell line (diffuse large B cell lymphoma); experiment: Pfeiffer cell proliferation assay; format: cell-based; details: Homo sapiens, [3H]-thymidine incorporation after 3-4 days plus 12 hours
Description: Pfeiffer Cell Proliferation Assay
Pfeiffer cell line (diffuse large B cell lymphoma) was purchased from ATCC (Manassas, Va.) and maintained in the culture medium recommended (RPMI and 10% FBS). To measure the anti-proliferation activity of the compounds, the Pfeiffer cells were plated with the culture medium (2×10^3 cells/well/per 200 μl) into 96-well ultra-low binding plates (Corning, Corning, N.Y.), in the presence or absence of a concentration range of test compounds. After 3-4 days, [^3H]-thymidine (1 μCi/well) (PerkinElmer, Boston, Mass.) in PBS was then added to the cell culture for an additional 12 hours before the incorporated radioactivity was separated by filtration with water through GF/B filters (Packard Bioscience, Meridenj, Conn.) and measured by liquid scintillation counting with a TopCount (Packard Bioscience).

PI3Kδ (p110δ/p85α) = target: T1, PI3Kδ (p110δ/p85α) (Homo sapiens, UniProt O00329); experiment: PI3Kδ scintillation proximity assay (assay A); format: biochemical; details: 20 μM PIP2, 20 μM ATP, 4 nM PI3Kδ, 210 minutes, room temperature
T1 construct: purchased Millipore (Bedford, Mass.)
T1 sequence (O00329 whole entry): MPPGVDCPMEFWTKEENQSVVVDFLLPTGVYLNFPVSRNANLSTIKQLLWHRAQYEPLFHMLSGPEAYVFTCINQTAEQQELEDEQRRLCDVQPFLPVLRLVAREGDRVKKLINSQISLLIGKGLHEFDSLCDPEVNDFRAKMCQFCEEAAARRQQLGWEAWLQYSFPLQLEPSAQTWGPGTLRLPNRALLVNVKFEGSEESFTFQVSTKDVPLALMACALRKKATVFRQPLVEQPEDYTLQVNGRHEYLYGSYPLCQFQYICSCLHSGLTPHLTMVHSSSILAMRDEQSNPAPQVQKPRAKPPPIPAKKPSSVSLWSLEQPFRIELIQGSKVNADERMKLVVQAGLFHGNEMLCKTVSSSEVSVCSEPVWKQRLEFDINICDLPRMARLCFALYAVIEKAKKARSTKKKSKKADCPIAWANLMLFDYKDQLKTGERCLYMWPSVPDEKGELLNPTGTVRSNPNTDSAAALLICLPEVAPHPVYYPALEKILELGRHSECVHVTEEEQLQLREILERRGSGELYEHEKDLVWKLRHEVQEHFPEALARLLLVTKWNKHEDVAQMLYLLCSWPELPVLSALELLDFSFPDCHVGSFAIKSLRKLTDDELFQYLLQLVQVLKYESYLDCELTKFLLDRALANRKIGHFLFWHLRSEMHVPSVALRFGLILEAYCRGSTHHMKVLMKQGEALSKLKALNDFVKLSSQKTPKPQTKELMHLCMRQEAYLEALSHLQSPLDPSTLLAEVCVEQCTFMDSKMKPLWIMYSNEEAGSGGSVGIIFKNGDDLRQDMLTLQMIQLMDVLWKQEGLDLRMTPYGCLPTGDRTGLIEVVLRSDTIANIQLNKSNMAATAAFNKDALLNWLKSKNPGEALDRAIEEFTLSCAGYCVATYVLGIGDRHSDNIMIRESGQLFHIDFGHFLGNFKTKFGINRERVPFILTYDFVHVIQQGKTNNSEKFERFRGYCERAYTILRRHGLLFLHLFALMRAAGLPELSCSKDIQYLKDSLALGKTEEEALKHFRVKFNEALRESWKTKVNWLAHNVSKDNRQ
T1 sequence (P27986 whole entry partner): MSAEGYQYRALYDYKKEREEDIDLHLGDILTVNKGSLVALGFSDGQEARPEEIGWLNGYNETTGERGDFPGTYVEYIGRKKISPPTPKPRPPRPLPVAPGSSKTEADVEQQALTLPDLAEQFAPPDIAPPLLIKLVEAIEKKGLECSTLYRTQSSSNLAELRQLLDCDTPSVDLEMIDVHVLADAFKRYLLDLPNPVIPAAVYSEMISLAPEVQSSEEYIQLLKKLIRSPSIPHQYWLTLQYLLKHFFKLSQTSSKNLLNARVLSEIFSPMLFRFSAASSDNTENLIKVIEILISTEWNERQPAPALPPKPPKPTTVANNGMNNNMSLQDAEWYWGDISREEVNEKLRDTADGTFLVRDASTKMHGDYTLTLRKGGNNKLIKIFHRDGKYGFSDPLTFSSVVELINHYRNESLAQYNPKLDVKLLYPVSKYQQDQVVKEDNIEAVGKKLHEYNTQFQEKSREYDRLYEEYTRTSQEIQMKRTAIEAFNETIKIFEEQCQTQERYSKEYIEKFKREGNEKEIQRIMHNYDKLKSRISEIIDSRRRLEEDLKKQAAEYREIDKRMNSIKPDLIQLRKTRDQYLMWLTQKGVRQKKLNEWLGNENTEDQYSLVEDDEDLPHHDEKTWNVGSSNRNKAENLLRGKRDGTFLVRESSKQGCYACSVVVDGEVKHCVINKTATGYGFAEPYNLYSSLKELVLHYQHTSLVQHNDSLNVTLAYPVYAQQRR
Description: PI3Kδ Scintillation Proximity Assay
[γ-33P] ATP (10 mCi/mL) was purchased from Perkin-Elmer (Waltham, Mass.). […] PI3Kδ (p110δ/p85α) was purchased from Millipore (Bedford, Mass.). ATP, MgCl2, DTT, EDTA, MOPS and CHAPS were purchased from Sigma-Aldrich (St. Louis, Mo.). Wheat Germ Agglutinin (WGA) YSi SPA Scintillation Beads was purchased from GE healthcare life sciences (Piscataway, N.J.).
The kinase reaction was conducted in polystyrene 384-well matrix white plate from Thermo Fisher Scientific in a final volume of 25 μL. Inhibitors were first diluted serially in DMSO and added to the plate wells before the addition of other reaction components. The final concentration of DMSO in the assay was 0.5%. The PI3K assays were carried out at room temperature in 20 mM MOPS, pH 6.7, 10 mM MgCl2, 5 mM DTT and CHAPS 0.03%. Reactions were initiated by the addition of ATP, the final reaction mixture consisted of 20 μM PIP2, 20 μM ATP, 0.2 μCi [γ-^33P] ATP, 4 nM PI3Kδ. Reactions were incubated for 210 minutes and terminated by the addition of 40 μL SPA beads suspended in quench buffer: 150 mM potassium phosphate pH 8.0, 20% glycerol. 25 mM EDTA, 400 μM ATP. The final concentration of SPA beads is 1.0 mg/mL. After the plate sealing, plates were shaken overnight at room temperature and centrifuged at 1800 rpm for 10 minutes, the radioactivity of the product was determined by scintillation counting on Topcount (Perkin-Elmer). IC50 determination was performed by fitting the curve of percent control activity versus the log of the inhibitor concentration using the GraphPad Prism 3.0 software.

SMILES	IC50 [1] [nM]	IC50 (PI3Kδ (p110δ/p85α)) [nM]
CC(Nc1ncnc2[nH]cnc12)c1cc(Cl)c2cncn2c1N1CC[C@H](O)C1 (stereo partly drawn) [Example 24, (3S)-1-{8-Chloro-6-[1-(9H-purin-6-ylamino)ethyl]imidazo[1,5-a]pyridin-5-yl}pyrrolidin-3-ol]	≤ 100	< 50
CCN(CC)c1c(C(C)Nc2ncnc3[nH]cnc23)cc(Cl)c2cnc(C)n12 (stereo not drawn) [Example 25, N-{1-[8-Chloro-5-(diethylamino)-3-methylimidazo[1,5-a]pyridin-6-yl]ethyl}-9H-purin-6-amine]	500 to 1000	< 50
CC(Nc1ncnc2[nH]cnc12)c1cc(Cl)c2ccnn2c1-c1cccc(F)c1 (stereo not drawn) [Example 26, N-{1-[4-chloro-7-(3-fluorophenyl)pyrazolo[1,5-a]pyridin-6-yl]ethyl}-9H-purin-6-amine]	≤ 100	< 50
CC(Nc1ncnc2[nH]cnc12)c1cc(F)c2ccnn2c1-c1cccc(F)c1 (stereo not drawn) [Example 27, N-{1-[4-fluoro-7-(3-fluorophenyl)pyrazolo[1,5-a]pyridin-6-yl]ethyl}-9H-purin-6-amine]	≤ 100	< 50
COc1cccc(-c2c(C(C)Nc3ncnc4[nH]cnc34)cc(Cl)c3ccnn23)c1 (stereo not drawn) [Example 28, N-{1-[4-chloro-7-(3-methoxyphenyl)pyrazolo[1,5-a]pyridin-6-yl]ethyl}-9H-purin-6-amine]	≤ 100	< 50
CC(Nc1ncnc2[nH]cnc12)c1cc(F)c2cncn2c1-c1cccc(F)c1 (stereo not drawn) [Example 29, N-{1-[8-Fluoro-5-(3-fluorophenyl)imidazo[1,5-a]pyridin-6-yl]ethyl}-9H-purin-6-amine]	500 to 1000	< 50
CC(=O)N1CCN(c2c(C(C)Nc3ncnc4[nH]cnc34)cc(Br)c3cncn23)CC1 (stereo not drawn) [Example 30, N-{1-[5-(4-Acetylpiperazin-1-yl)-8-bromoimidazo[1,5-a]pyridin-6-yl]ethyl}-9H-purin-6-amine bis(trifluoroacetate)]	100 to 500	< 50
CC(=O)N1CCN(c2c(C(C)Nc3ncnc4[nH]cnc34)cc(C#N)c3cncn23)CC1 (stereo not drawn) [Example 31, 5-(4-Acetylpiperazin-1-yl)-6-[1-(9H-purin-6-ylamino)ethyl]imidazo[1,5-a]pyridine-8-carbonitrile bis(trifluoroacetate)]	> 3000	200 to 750
CC(=O)N1CCN(c2c(C(C)Nc3ncnc4[nH]cnc34)cc(C)c3cncn23)CC1 (stereo not drawn) [Example 32, N-{1-[5-(4-Acetylpiperazin-1-yl)-8-methylimidazo[1,5-a]pyridin-6-yl]ethyl}-9H-purin-6-amine bis(trifluoroacetate)]	> 3000	< 50
